In PMC7811140 (iScience, 2020):
“Also recorded” adds a separate entry of the source. Blank lines part the entries; values can stand above or below the compound they belong to.

Assays:
KDM4B [1] = target: T1, KDM4B (Homo sapiens, UniProt O94953); assay: biochemical; details: for inhibition at 15 µM: read-out: %Inhibition of KDM4B; for KDM4B inhibitory activity (in words): Figure S2; for %Inhibition of KDM4B: at 15 μM, screening
T1 sequence (O94953 1-348): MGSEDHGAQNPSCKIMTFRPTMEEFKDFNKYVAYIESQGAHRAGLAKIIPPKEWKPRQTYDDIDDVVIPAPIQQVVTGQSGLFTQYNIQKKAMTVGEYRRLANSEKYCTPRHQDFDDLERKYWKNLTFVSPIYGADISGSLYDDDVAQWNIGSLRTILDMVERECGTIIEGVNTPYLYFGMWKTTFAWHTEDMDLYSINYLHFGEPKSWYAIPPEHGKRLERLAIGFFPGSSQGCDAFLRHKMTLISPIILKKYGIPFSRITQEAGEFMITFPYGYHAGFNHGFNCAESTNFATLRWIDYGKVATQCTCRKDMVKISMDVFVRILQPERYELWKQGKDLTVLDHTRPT

KDM4B [2] = target: T2, KDM4B (Homo sapiens, UniProt O94953); assay: Western blot of histone marks in 293T cells expressing KDM4B; format: cell-based; details: treated 24 hours
T2 sequence (O94953 1-1096): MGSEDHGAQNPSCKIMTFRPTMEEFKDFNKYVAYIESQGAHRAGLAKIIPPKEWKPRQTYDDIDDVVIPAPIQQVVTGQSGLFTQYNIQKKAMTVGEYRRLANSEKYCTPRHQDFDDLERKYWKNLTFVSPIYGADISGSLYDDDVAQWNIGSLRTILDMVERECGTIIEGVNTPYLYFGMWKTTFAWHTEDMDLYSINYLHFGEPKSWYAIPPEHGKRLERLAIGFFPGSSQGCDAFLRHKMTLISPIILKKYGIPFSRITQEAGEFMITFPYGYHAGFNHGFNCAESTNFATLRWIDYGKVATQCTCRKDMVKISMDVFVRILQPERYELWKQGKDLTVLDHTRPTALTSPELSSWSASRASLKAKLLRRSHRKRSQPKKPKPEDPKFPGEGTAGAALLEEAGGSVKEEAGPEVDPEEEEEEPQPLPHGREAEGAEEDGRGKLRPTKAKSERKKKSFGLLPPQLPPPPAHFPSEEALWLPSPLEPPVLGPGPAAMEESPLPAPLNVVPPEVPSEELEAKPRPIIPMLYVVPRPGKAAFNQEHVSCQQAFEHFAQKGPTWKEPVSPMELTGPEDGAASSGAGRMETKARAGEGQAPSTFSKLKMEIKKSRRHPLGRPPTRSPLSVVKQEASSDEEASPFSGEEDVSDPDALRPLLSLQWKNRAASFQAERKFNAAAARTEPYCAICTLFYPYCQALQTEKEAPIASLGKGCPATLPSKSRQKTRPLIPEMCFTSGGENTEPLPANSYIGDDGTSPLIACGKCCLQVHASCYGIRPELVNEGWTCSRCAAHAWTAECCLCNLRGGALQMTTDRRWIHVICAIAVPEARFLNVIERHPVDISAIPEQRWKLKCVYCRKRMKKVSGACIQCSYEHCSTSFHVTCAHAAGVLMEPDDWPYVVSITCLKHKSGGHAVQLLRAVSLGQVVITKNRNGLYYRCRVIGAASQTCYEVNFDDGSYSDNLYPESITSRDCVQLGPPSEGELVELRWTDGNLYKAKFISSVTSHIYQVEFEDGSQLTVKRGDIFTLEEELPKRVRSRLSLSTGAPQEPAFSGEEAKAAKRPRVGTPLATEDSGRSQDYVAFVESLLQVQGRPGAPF

eRMS xenograft = details: ref Kang et al., 2012; Lock et al., 2013; cited from earlier work
aRMS xenograft = details: ref Kang et al., 2012; Lock et al., 2013; cited from earlier work
KDM4B [3] = target: T2, KDM4B; assay: Western blot of histone methyl marks in U2OS cells expressing KDM4B; details: 1uM, not on H3K4me3
KDM4C = target: T3, KDM4C (Homo sapiens, UniProt Q9H3R0); assay: ALPHA Screen demethylation assay; format: biochemical; details: IC50 (μM) KDM4C
T3 sequence (Q9H3R0 1-1056): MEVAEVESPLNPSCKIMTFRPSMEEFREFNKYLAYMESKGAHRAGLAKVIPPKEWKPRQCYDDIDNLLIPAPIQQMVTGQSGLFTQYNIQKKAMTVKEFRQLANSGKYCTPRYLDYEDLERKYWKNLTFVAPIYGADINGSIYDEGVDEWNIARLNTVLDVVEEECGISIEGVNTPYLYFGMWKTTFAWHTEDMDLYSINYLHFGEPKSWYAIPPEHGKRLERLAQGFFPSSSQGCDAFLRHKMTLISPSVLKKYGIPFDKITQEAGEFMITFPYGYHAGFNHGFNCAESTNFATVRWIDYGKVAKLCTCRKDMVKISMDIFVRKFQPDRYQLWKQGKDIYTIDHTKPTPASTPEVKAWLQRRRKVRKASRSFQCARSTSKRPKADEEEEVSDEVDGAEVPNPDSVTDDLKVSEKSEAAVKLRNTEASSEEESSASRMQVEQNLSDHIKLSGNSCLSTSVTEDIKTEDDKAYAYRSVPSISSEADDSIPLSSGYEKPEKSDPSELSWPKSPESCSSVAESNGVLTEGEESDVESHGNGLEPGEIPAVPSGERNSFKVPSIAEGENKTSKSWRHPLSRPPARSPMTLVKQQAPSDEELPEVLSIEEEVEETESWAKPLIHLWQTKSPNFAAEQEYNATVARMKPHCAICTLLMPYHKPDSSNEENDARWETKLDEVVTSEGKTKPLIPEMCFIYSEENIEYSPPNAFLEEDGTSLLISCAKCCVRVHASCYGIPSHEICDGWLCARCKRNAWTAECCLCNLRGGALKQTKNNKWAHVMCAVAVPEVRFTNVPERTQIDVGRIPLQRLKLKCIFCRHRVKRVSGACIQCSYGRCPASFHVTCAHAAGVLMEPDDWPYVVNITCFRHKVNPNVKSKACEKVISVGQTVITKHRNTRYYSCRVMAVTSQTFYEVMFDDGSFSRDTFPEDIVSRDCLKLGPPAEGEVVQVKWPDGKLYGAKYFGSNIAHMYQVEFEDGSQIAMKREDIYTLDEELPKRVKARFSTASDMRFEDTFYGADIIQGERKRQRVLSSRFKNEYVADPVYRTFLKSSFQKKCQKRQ

[4] = system: H3K9me3 and H3K36me3 peaks; assay: ChIP-seq of H3K9me3 and H3K36me3 in Rh30 cells; format: cell-based, human; details: 1μM, 24 hr
KDM5A = KDM5A (Homo sapiens, UniProt P29375); assay: ALPHA Screen demethylation assay; format: biochemical; details: IC50 (μM) KDM5A
Chain of KDM5A (P29375 whole entry): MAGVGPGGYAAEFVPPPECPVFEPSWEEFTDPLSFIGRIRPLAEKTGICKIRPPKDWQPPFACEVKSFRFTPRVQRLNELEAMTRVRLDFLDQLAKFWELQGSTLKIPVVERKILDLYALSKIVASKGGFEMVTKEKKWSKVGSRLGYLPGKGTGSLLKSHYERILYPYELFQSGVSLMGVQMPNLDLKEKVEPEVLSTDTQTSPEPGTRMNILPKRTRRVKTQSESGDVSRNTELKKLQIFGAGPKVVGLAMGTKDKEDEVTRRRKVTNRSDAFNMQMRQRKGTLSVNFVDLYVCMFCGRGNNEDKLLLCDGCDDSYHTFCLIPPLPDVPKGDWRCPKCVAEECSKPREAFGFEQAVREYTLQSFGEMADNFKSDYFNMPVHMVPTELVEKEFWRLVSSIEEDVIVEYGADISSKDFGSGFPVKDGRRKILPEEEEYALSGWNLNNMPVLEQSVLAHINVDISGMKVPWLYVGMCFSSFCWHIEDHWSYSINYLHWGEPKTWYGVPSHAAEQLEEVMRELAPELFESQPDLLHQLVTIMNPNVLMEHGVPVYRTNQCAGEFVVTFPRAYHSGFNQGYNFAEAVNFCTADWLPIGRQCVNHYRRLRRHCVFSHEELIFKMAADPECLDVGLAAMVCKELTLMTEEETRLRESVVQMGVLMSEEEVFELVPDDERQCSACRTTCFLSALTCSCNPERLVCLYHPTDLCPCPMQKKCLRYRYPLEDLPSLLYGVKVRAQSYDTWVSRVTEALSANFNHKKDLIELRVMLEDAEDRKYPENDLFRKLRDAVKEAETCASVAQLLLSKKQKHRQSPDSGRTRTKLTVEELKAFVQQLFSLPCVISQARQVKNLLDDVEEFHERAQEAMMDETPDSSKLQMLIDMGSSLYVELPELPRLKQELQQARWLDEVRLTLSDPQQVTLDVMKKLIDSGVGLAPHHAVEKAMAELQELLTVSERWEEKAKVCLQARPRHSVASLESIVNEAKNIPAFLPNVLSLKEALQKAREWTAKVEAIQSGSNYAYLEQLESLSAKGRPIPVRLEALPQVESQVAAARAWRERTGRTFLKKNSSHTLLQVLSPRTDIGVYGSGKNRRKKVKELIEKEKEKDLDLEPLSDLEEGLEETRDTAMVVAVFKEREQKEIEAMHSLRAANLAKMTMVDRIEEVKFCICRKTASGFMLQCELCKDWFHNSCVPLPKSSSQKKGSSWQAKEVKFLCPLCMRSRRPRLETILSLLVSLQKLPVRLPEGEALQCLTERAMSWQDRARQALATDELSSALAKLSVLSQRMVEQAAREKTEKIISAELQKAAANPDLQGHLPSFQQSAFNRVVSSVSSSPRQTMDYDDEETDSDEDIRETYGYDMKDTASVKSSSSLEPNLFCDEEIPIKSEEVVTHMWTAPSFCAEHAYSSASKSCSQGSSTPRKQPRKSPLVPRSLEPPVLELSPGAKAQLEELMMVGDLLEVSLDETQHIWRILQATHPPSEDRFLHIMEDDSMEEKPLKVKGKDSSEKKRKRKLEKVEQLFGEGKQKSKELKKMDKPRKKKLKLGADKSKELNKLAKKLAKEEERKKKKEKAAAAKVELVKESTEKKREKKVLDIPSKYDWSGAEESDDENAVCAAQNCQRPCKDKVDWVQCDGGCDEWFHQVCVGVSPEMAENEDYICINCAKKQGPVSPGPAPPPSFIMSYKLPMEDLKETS

PAX3-FOXO1 = assay: Western blot of PAX3-FOXO1 in Rh30 cells; format: cell-based; details: 24 hr
[5] = system: KDM4 substrates H3K9me3 and H3K36me3; assay: Western blot of H3K9me3 and H3K36me3 in Rh30 cells; format: cell-based; details: 24 hr
Rh30 cells = assay: Crystal violet staining proliferation assay; format: cell-based; details: 5 days, at the concentrations that hit the targets

Compound: CN(NC(=O)CC(=O)NN(C)C(=S)c1ccccc1)C(=S)c1ccccc1 [STA-4783]
inhibition at 15 µM (KDM4B [1]): < 15%

Compound: Cc1cc(C2CCCCC2)n(O)c(=O)c1 [ciclopirox]
KDM4B activity in demethylating H3K9me3 (KDM4B [2]): greatly inhibited KDM4B activity

Compound: COC1=C2C[C@@H](C)C[C@H](OC)[C@H](O)[C@@H](C)/C=C(\C)[C@H](OC(N)=O)[C@@H](OC)/C=C\C=C(/C)C(=O)NC(=CC1=O)C2=O [geldanamycin]
KDM4B catalytic activity on its H3K9me3 and H3K36me3 substrates (KDM4B [3]): blocked KDM4B catalytic activity | IC50 (KDM4C): < 1 µM | H3K36me3 peaks decreased [4]: 213 peaks | H3K36me3 peaks increased [4]: 1430 peaks | peaks of H3K9me3 induced ([4]; p < 0.05, logFC = 0.5): Four thousand four hundred six | IC50 (KDM5A): < 1 µM | KDM4B activity in demethylating H3K9me3 (KDM4B [2]): greatly inhibited KDM4B activity | PAX3-FOXO1 expression (protein) (PAX3-FOXO1): reduced | H3K9me3 and H3K36me3 levels [5]: induced an increase of H3K9me3 and H3K36me3

Compound: CCOC(=O)c1ccnc(CNCC(=O)N(CC)CCN(C)C)c1 [KDM5-C70]
anti-proliferative effect (Rh30 cells): no anti-proliferative effect

Compound: CCc1c(O)cc(O)c(C(=O)c2ccc(OCCN3CCOCC3)c(OC)c2)c1CC(=O)N(CCOC)CCOC.Cl [KW2478]
%Inhibition of KDM4B (KDM4B [1]): < 15%

Compound: CCOC(=O)CCNc1cc(N2CCc3ccccc3CC2)nc(-c2ccccn2)n1 [GSK-J4]
anti-proliferative effect (Rh30 cells): no anti-proliferative effect

Compound: CC[C@@H](C)Nc1cc(C(=O)N[C@H]2C[C@H]3CC[C@@H](C2)N3c2ccc(C(=O)C3CC3)cn2)c(C)cc1C(N)=O [XL888]
%Inhibition of KDM4B (KDM4B [1]): < 15%

Compound: CC1(C)CC(=O)c2c(C(F)(F)F)nn(-c3ccc(C(N)=O)c(N[C@H]4CC[C@H](OC(=O)CN)CC4)c3)c2C1 [SNX-5422]
inhibition at 15 µM (KDM4B [1]): < 15%

The next lines start with results.

KDM4B inhibitory activity (in words) (KDM4B [1]): did not inhibit KDM4B activity | inhibition at 15 µM (KDM4B [1]): < 15%
Compound: CC(C)c1cc(-c2n[nH]c(=O)n2-c2ccc3c(ccn3C)c2)c(O)cc1O [Ganetespib]
eRMS xenograft growth (eRMS xenograft): no effect on either aRMS or eRMS xenograft growth | aRMS xenograft growth (aRMS xenograft): no effect

inhibition at 15 µM (KDM4B [1]): < 15%
Compound: CC(C)c1cc(C(=O)N2Cc3ccc(CN4CCN(C)CC4)cc3C2)c(O)cc1O [AT13387]
KDM4B inhibitory activity (in words) (KDM4B [1]): minimal effect on KDM4B activity; also recorded: did not inhibit KDM4B activity | eRMS xenograft growth (eRMS xenograft): no effect on either aRMS or eRMS xenograft growth | aRMS xenograft growth (aRMS xenograft): no effect | PAX3-FOXO1 expression (protein) (PAX3-FOXO1): reduced the expression of PAX3-FOXO1

inhibition at 15 µM (KDM4B [1]): < 15%
Compound: CCNC(=O)c1noc(-c2cc(C(C)C)c(O)cc2O)c1-c1ccc(CN2CCOCC2)cc1 [NVP-AUY922]
